Data on 3 compounds can be found in patent US20050197366A1, “Antimicrobial composition containing N-(n-butyl)-1,2-benzisothiazolin-3-one” (priority 2004, published 2005).

Molecules are shown by their SMILES. Values joined by “and” are separate entries in the source; they are usually repeats but may differ in a detail not shown here. Identical values can stand only once. Like-named read-outs stand apart in the source and are kept apart here.

Holding throughout (type): cell-based
Experiment [1] has as its system Klebsiella pneumoniae (ATCC#13583). As to the kind of experiment: Microtiter plate synergy test (MIC, Kull synergy index), bacteria, Trypticase Soy Broth. As to conditions: for MIC: Klebsiella pneumoniae, read-out: Alone ppm (MIC of compound acting alone). The source says:
(§1) One measure of synergism is the industrially accepted method described by Kull, F. C.; Eisman, P. C.; Sylwestrowicz, H. D. and Mayer, R. L., in Applied Microbiology 9:538-541 (1961), using the ratio determined by the formula: Qa/QA+Qb/QB=Synergy Index (“SI”) wherein: • QA=concentration of compound A (first component) in ppm, acting alone, which produced an end point (MIC of Compound A). • Qa=concentration of compound A in ppm, in the mixture, which produced an end point. • QB=concentration of compound B (second component) in ppm, acting alone, which produced an end point (MIC of Compound B). • Qb=concentration of compound B in ppm, in the mixture, which produced an end point.
(§2) When the sum of Qa/QA and Qb/QB is greater than one, antagonism is indicated. […] The lower the SI, the greater the synergy shown by that particular mixture. The minimum inhibitory concentration (MIC) of an antimicrobial compound is the lowest concentration tested under a specific set of conditions that prevents the growth of added microorganisms.
(§3) Synergy tests were conducted using standard microtiter plate assays (12 columns, 1-12×8 rows, A-H) with media designed for optimal growth of the test microorganism. Full-strength nutrient medium, Trypticase Soy Broth, TSB, for bacteria, or Potato Dextrose Broth, PDB, for fungi, was used for testing. Growth medium (160 μL) was dispensed into columns 2-6 and 8-12 of the plate. A total of 40 plates were made with each growth medium. Stock solutions of N-(n-butyl)-1,2-benzisothiazolin-3-one were made from DENSIL DG 20 (20% active ingredient (AI), n-BBIT, in propylene glycol, obtained from Avecia Inc.) at the following concentrations based on total product weight: 5000 ppm (0.2 g DENSIL DG 20 in 40 g growth medium), 4000 ppm, 3500 ppm, 3000 ppm, 2500 ppm, 2000 ppm, 1500 ppm, 1000 ppm and 900 ppm. Isothiazolone stock solutions were made as follows. KATHON LX (1.97% active, 3:1 CMI/MI mixture): active ingredient concentrations at 144 ppm, 36 ppm, 10 ppm, 5 ppm and 1 ppm. ROZONE 2000 (20% active, DCOIT): active ingredient concentrations at 144 ppm, 36 ppm, 10 ppm, 5 ppm and 1 ppm. ROCIMA 550 (9.5% active, MI): active ingredient concentrations at 4800 ppm, 2400 ppm, 900 ppm, 360 ppm and 180 ppm. DENSIL DG 20 stock solution was dispensed in each well of columns 1 and 7 of a microtiter plate, as described below:
(§4) 5000 ppm of stock solution was tested against Ps. aeruginosa in 1A, 7A. The 900 ppm stock was not tested against this organism. A 40 μL aliquot was transferred from each well in column 1 to column 2 and serially diluted to column 5; the aliquots from column 5 was discarded. Column 6 was the control. The same procedure was repeated from column 7 to column 11, and the aliquots from column 11 discarded. At the end of this procedure, each well should contain 160 μL of solution.
(§5) The isothiazolone stock solutions were added to various columns so that each well contained the desired concentration of the isothiazolone and the DENSIL DG20. The DENSIL DG20 alone as well as the isothiazolone alone were included as controls. An example of the combination of 11 ppm KATHON LX 1.5% (on an active ingredient basis) with DENSIL DG20 is shown below:
(§6) DENSIL DG20 alone (columns 1-5); untreated control (column 6); combination evaluations (columns 7-11); KATHON LX 1.5% control (column 12). Inoculum (10 μL) was dispensed into each well from column 1-12. […] The MIC of each biocide was determined from the plates, and then SI was determined.
(§7) The following Tables summarize data for combinations of n-BBIT with other isothiazolones (ITA), along with their synergy index (SI) and the ratio of n-BBIT:ITA. All amounts of n-BBIT and ITA are reported as ppm of active ingredient. Results for testing against various organisms are grouped with results against fungi (F) reported together, and then results against bacteria (B).
(§8) Typical contact time for bacteria is 24-48 hours and 3-7 days for fungi. […]

Experiment [2] has as its system Staphylococcus aureus (ATCC#6538). The experiment is described as above. As to conditions: S. aureus, ppm active ingredient; for MIC: Staphylococcus aureus, ATCC6538, read-out: Alone ppm (MIC of compound acting alone).
Text: as §1, §2, §3, §4, §5, §6, §7, §8

Experiment [3] relates to Fusarium moniliforme (ATCC#58929). As to the kind of experiment: Microtiter plate synergy test (MIC, Kull synergy index), fungi, Potato Dextrose Broth. As to conditions: for MIC: Fusarium verticillioides, read-out: Alone ppm (MIC of compound acting alone).
Text: as §1, §2, §3, §4, §5, §6, §7, §8

The subject of experiment [4] is Proteus mirabilis (ATCC#unknown). As to the kind of experiment: Microtiter plate synergy test (MIC, Kull synergy index), bacteria, Trypticase Soy Broth. As to conditions: P. mirabilis, contact time 48 hr, ppm active ingredient.
Text: as §1, §2, §3
(§9) 5000 ppm of stock solution was tested against Ps. aeruginosa in 1A, 7A. The 900 ppm stock was not tested against this organism. […]
(§10) DENSIL DG20 alone (columns 1-5); untreated control (column 6); combination evaluations (columns 7-11); KATHON LX 1.5% control (column 12). […] The MIC of each biocide was determined from the plates, and then SI was determined. […]

For experiment [5], the system named is Pseudomonas aeruginosa (ATCC#15442). The experiment is described as above. As to conditions: for Alone ppm (MIC of compound acting alone): Ps. aeruginosa, ppm active ingredient; for MIC: Pseudomonas aeruginosa, read-out: Alone ppm (MIC of compound acting alone).
Text: as §1, §2, §3, §4, §5, §6, §7, §8

The subject of experiment [6] is Aspergillus niger (ATCC#16404). As to the kind of experiment: Microtiter plate synergy test (MIC, Kull synergy index), fungi, Potato Dextrose Broth. As to conditions: for Alone ppm (MIC of compound acting alone): A. niger, ppm active ingredient.
Text: as §1, §2, §3, §4, §5, §6, §7, §8

The subject of experiment [7] is Escherichia coli (ATCC#8739). As to the kind of experiment: Microtiter plate synergy test (MIC, Kull synergy index), bacteria, Trypticase Soy Broth. As to conditions: E. coli, ppm active ingredient.
Text: as §1, §2, §3, §9, §10

For experiment [8], the system named is Candida albicans (ATCC#10231). As to the kind of experiment: Microtiter plate synergy test (MIC, Kull synergy index), fungi, Potato Dextrose Broth.
Text: as §1, §2, §3, §4, §5
(§11) DENSIL DG20 alone (columns 1-5); untreated control (column 6); combination evaluations (columns 7-11); KATHON LX 1.5% control (column 12). Inoculum (10 μL) was dispensed into each well from column 1-12. The plates were incubated (bacterial plates at 48 hrs., 30° C.; fungal plates at 7 days, 25° C.). The MIC of each biocide was determined from the plates, and then SI was determined.
(§12) The following Tables summarize data for combinations of n-BBIT with other isothiazolones (ITA), along with their synergy index (SI) and the ratio of n-BBIT:ITA. All amounts of n-BBIT and ITA are reported as ppm of active ingredient. Results for testing against various organisms are grouped with results against fungi (F) reported together, and then results against bacteria (B). […]

Experiment [9] deals with Gliocladium viridie (Tricoderma viridie)(isolate). The experiment is described as above. As to conditions: for Alone ppm (MIC of compound acting alone): G. viridie, ppm active ingredient; for MIC: read-out: Alone ppm (MIC of compound acting alone).
Text: as §1, §2, §3, §4, §5, §11, §12

For the compound `CCCCCCCCn1sc(Cl)c(Cl)c1=O` [DCOIT, 4,5-dichloro-2-n-octyl-4-isothiazolin-3-one], the MIC in experiment [1] (ATCC13583, K. pneumoniae, contact time 48 hr, ppm active ingredient) was found to be 11 µg/mL; in experiment [2] (contact time 24 hr), 6 µg/mL; in experiment [2] (contact time 48 hr), 9 µg/mL; in experiment [3] (ATCC58929, 72 h, F. moniliforme, contact time 3 days, ppm active ingredient), 0.28 µg/mL; in experiment [3] (ATCC58929, 168 h, F. moniliforme, contact time 7 days, ppm active ingredient) it was 1 µg/mL; in experiment [4] (Proteus mirabilis, read-out: Alone ppm (MIC of compound acting alone)), 5 µg/mL.

For the compound `CCCCn1sc2ccccc2c1=O` [n-BBIT, N-(n-butyl)-1,2-benzisothiazolin-3-one], the “Alone ppm (MIC of compound acting alone)” value in [5] (contact time 24 hr) is reported as 711 ppm; in [5] (contact time 48 hr), 711 ppm; in experiment [1] (K. pneumoniae, contact time 24 hr, ppm active ingredient), 267 ppm; in experiment [1] (K. pneumoniae, contact time 48 hr, ppm active ingredient), 267 ppm; in [2] (contact time 24 hr), 36 ppm; in [2] (contact time 48 hr), 53 ppm. In addition, the “Alone ppm (MIC of compound acting alone)” value is 28 ppm in experiment [6] (contact time 3 days); 53 ppm in experiment [6] (contact time 7 days); 267 ppm and 444 ppm in experiment [3] (F. moniliforme, contact time 3 days, ppm active ingredient); 533 ppm and 356 ppm and 267 ppm in experiment [3] (F. moniliforme, contact time 7 days, ppm active ingredient); 356 ppm in experiment [7] (contact time 24 hr); 533 ppm in experiment [7] (contact time 48 hr). The “Alone ppm (MIC of compound acting alone)” value in [4] was 18 ppm; in [8] (C. albicans, contact time 7 days, ppm active ingredient), 124 ppm; in experiment [9] (contact time 3 days), 711 ppm; in [9] (contact time 7 days) it was >711 ppm.

As for `Cn1sccc1=O` [MI, 2-methyl-4-isothiazolin-3-one], the minimal inhibitory concentration (MIC) in experiment [5] (ATCC15442, 24 h) worked out at 20 µg/mL; in experiment [5] (ATCC15442, 48 h), 25 µg/mL; in experiment [1] (ATCC13583, 24 h), 25 µg/mL; in experiment [6] (Aspergillus niger, ATCC16404, 168 h, read-out: Alone ppm (MIC of compound acting alone)), 200 µg/mL; in experiment [3] (ATCC58929, 72 h), 200 µg/mL; in experiment [3] (ATCC58929, 168 h), 200 µg/mL. Besides, the minimum inhibitory concentration (MIC) came out at 25 µg/mL in experiment [8] (Candida albicans, ATCC10231, 168 h, read-out: Alone ppm (MIC of compound acting alone)); 107 µg/mL in experiment [9] (72 h); 133 µg/mL in experiment [9] (168 h).
